Data on 2 compounds can be found in BindingDB's records for patent US10618914 (University of Pittsburgh, 2020).

The IC50 is the concentration at which inhibition is half-maximal.

The test concerns the target T1, Signal transducer and activator of transcription 1-alpha/beta (Homo sapiens, UniProt P42224).
T1 sequence (P42224 whole entry): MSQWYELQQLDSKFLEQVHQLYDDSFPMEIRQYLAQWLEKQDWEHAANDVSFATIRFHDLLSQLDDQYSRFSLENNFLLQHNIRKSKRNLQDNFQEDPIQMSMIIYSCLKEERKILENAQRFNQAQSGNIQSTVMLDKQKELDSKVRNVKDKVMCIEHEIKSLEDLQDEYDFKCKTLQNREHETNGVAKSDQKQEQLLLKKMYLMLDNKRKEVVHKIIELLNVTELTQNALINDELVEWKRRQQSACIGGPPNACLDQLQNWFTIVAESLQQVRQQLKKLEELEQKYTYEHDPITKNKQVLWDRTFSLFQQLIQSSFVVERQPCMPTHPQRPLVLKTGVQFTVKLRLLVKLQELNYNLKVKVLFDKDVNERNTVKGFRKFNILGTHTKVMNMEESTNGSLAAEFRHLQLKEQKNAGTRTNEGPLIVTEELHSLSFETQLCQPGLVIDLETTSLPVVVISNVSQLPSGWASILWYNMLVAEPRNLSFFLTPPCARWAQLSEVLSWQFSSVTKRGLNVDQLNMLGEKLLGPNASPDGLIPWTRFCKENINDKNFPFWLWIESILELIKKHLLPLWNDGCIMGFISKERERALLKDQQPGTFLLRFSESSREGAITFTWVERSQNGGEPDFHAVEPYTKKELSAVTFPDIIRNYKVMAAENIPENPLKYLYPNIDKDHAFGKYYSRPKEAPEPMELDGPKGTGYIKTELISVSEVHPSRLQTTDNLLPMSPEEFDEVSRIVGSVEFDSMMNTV
Nature of the test: Bioassay Evaluation.

Procedure: Compound samples (in 3-5 mg quantities) were evaluated in a variety of assays.

In the case of `CC1Sc2nnc(-c3[nH]nc4c3CCC4)n2N=C1c1ccc(Cl)c(Cl)c1` (configuration not stated) [US10618914, Compound 19], the 50% inhibitory concentration (IC50) is above 50 µM.
Compound `CC1(C)Sc2nnc(-c3[nH]nc4c3CCC4)n2N=C1c1ccc(Cl)c(Cl)c1` [US10618914, Compound 32] showed an IC50 above 50 µM.
